From ChEMBL document CHEMBL1201862, “PubChem BioAssay data set” (2004) come the findings set out here.

Experiment [1] can be described thus: cells. It counts as functional, cell-based.
Experiment [2] in a line: cells. It counts as functional, cell-based. The source holds these as a separate data set.
Experiment [3] in a line: HepG2 cell cytotoxicity, dose response, cytotoxicity control, ATP luminescence, cherry-pick, activator set 2 (AID 1053143). It counts as functional, cell-based.
Experiment [4] in a line: inhibitors of non-replicating M. tuberculosis, dose response, luciferase, dry powder (AID 651620). It counts as functional. The following applies: Mycobacterium tuberculosis.
Experiment [5] can be described thus: inhibitors of non-replicating M. tuberculosis, dose response, luciferase, dry powder (AID 651619). It counts as functional. The following applies: Mycobacterium tuberculosis.
The target of experiment [6] is T1, Sentrin-specific protease 1 (Homo sapiens, UniProt Q9P0U3).
T1 sequence (Q9P0U3 whole entry): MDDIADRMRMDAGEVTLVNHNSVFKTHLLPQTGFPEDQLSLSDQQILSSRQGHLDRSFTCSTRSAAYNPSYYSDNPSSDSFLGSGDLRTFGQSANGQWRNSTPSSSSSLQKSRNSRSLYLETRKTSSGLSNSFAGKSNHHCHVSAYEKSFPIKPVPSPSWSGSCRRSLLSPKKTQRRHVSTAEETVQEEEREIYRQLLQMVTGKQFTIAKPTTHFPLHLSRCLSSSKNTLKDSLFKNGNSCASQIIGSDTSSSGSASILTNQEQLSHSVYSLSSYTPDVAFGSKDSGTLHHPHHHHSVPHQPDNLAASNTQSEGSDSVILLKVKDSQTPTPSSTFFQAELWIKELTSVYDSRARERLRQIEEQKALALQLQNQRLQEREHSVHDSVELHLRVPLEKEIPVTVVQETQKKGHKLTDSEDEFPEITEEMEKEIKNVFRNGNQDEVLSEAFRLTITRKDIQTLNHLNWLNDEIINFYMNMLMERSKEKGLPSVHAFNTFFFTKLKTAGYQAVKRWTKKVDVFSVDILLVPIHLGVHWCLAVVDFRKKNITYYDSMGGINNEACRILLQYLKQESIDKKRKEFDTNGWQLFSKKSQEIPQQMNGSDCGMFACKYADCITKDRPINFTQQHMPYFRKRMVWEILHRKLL
Nature of the experiment: Dose response confirmation of small molecule inhibitors of the catalytic domain of the SUMO protease, SENP1 in a FRET assay. It counts as functional. The following applies: read-out: IC50_Mean.

For experiment [7], the target named is T1, Sentrin-specific protease 1. Nature of the experiment: potency of human SENP1 inhibitors, dose response, biochemical, kinetic FRET (AID 651697). It counts as functional. To be noted: read-out: IC50_Mean.
Experiment [8] deals with Nuclear receptor subfamily 0 group B member 1 (Homo sapiens, UniProt P51843). It counts as functional, cell-based.
Experiment [9] is described as follows: cells. It counts as functional, cell-based. The source holds these as a separate data set.
The nature of experiment [10]: Luminescence Cell-Based Dose Response HTS to Identify Inhibitors of 5'UTR Stem-Loop Driven Prion Protein mRNA Translation in H4 Neuroglioblastoma Cells. [Related pubchem assays: 1827 (Project Summary), 1813 (Primary HTS)]. It counts as functional.
Experiment [11] can be described thus: inhibitors of SNCA 5'UTR-driven reporter translation, confirmation, H4 neuroglioma cells, luminescence (AID 1988). It counts as functional, cell-based.
A short description of experiment [12]: Luminescence Cell-Based Dose Response HTS to Identify Activators of Luciferase Translation or Activity in H4 […] Cells. [Related pubchem assays: 1829 (Project Summary), 1814 (Primary HTS)]. It counts as functional.
Experiment [13] concerns H4. Nature of the experiment: Luminescence Cell-Based Dose Response HTS to Identify Activators of 5'UTR Stem-Loop Driven Prion Protein mRNA Translation in H4 Neuroglioblastoma Cells. [Related pubchem assays: 1829 (Project Summary), 1814 (Primary HTS)]. To be noted: Homo sapiens. It counts as functional.
The nature of experiment [14]: THP-1 cell cytotoxicity, dose response, cytotoxicity control for Vif-APOBEC3G degradation inhibitor project, THP-1 cells (AID 1117359). It counts as functional. To be noted: Human immunodeficiency virus 1, THP-1.
A short description of experiment [15]: microbe, parasite or virus in culture. The following applies: Mycobacterium tuberculosis. It counts as functional.
Experiment [16] can be described thus: HEK293 cell cytotoxicity, dose response, cytotoxicity control, plate reader, cherry-picked samples (AID 743446). It counts as functional, cell-based.
Experiment [17] deals with HEK293. Nature of the experiment: cells. The following applies: Homo sapiens.
The nature of experiment [18]: LGR2 antagonists, dose response, cell-based, HEK293, CRE-luciferase reporter, cherry pick, set 2 (AID 743343).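 Also: transfected cells were stimulated with diluted bursicon conditioned medium after compound addition.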 It counts as functional.
Experiment [19] can be described thus: HepG2 cell cytotoxicity, dose response, cytotoxicity control, plate reader, cherry-pick, antagonist series (AID 743416). It counts as functional, cell-based.
A short description of experiment [20]: MC4R antagonists, dose response, counter-screen for LGR2 antagonist project, cell-based, plate reader, cherry pick (AID 743444).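 Also: transfected HEK 293 cells stimulated with alpha-MSH peptide; potency of inhibitors of the alpha-MSH evoked signal.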 It counts as functional.
Experiment [21] deals with HEK293. Nature of the experiment: cells. To be noted: Homo sapiens. This is another data set of the same source.
Experiment [22] is described as follows: inhibitors of PGC1a acetylation in cells, dose response, cell-based, cherry-picked samples (AID 720514).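 Also: potency may reflect raised or lowered acetylation signal.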 It counts as functional.
Experiment [23] deals with INS1. Nature of the experiment: beta cell apoptosis inhibitors, cytokine rescue, dose response, luminescence, retest (AID 449756).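 Also: cell death triggered by IL-1 beta plus TNF-alpha plus IFN-gamma mixture; protective hits raise ATP signal compared with cytokine alone wells.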 It counts as functional, cell-based. The following applies: Rattus norvegicus.

The source made the active and inactive calls.

Chain of Nuclear receptor subfamily 0 group B member 1 (P51843 whole entry): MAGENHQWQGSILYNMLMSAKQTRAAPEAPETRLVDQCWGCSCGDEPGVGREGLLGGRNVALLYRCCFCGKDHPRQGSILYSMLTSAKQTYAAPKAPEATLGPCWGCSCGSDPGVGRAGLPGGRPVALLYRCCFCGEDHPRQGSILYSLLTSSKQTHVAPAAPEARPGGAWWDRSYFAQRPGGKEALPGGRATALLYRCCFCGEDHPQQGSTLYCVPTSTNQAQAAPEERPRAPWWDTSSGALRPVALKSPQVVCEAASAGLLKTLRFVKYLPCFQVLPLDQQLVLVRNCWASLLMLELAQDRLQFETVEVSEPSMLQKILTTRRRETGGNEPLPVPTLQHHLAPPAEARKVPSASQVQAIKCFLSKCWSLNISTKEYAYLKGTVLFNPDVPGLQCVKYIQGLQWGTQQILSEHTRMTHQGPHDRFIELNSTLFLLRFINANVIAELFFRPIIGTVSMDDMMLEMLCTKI

The term EC50 denotes the concentration needed to bring the measured effect to its halfway point. For `Oc1ccnc(NCCc2ccccc2)n1`, the IC50 in experiment [1] is > 29.9 µM (inactive). Moreover, the EC50 in experiment [2] is > 29.9 µM (inactive).
Broadly, the AC50 is the midpoint of the concentration-response curve, whichever way the signal moves. Turning to `Cc1ncsc1C(=O)Nc1nc2c(s1)CC(C)CC2` (stereo not given), in experiment [3], the AC50 was > 52 µM (inactive).
As usually defined, the IC90 is the point of the concentration-response curve where the effect stands at 90%. In the case of `Fc1ccc(CSc2nnc(-c3cccnc3)o2)cc1`, the IC90 in experiment [4] and in [5] was 1 µM (active) each time.
Regarding `COc1cc(/C=C2\CCCc3c2nc2ccccc2c3C(=O)O)cc(Cl)c1O`, the IC50 is 2.96 µM (active) in experiment [6] and 4.82 µM (active) in experiment [7].
`Cc1ccc(-c2cc(C(=O)N3CCCC3)no2)cc1`: the IC50 in experiment [8] and in experiment [9] was > 67.5 µM (inactive) in each case. For the same compound, the EC50 was 2.79 µM (active) in experiment [10] and 9.94 µM (inconclusive) in experiment [11].
Regarding `CCOC(=O)C1CCN(c2ccc(-c3cccs3)nn2)CC1`, in experiment [3], the AC50 was 26 µM (active). The EC50 was 0.391 µM (active) in experiment [12] and 96.1 µM (active) in experiment [13].
Consider `Cc1ccc2c(c1)CCCN2C(=O)c1cc(C)c(C)s1`, for which the CC50 in experiment [14] was > 40 µM (active).
For `O=C(Cn1ncc(Cl)c(Cl)c1=O)c1ccc2c(c1)OCCO2`, the CC50 is 9.67 µM (active) in [14] and 13.8 µM (active) in [15]. Moreover, the AC50 in experiment [16] is 17 µM (active); in [18] it was 28.4 µM (active); in experiment [19], 21.3 µM (active); in experiment [20], 36.5 µM (active); in experiment [22], 15.4 µM (active); in experiment [23] it was > 120 µM (inactive). Moreover, the EC50 in [17] and in [21] was > 59.5 µM (inactive) throughout.
